Measurements from PMC4740242 (Cell reports, 2016).

Legend:
L1196M ALK = L1196M ALK (Homo sapiens, UniProt Q9UM73, L1196M); assay: HotSpot kinase assay, L1196M ALK; type: biochemical; conditions: single-dose screen verified in dose-response
T674I PDGFRα = T674I PDGFRα (Homo sapiens, UniProt P16234, T674I); assay: HotSpot radiometric kinase assay, recombinant T674I PDGFRα; type: biochemical; conditions: for inhibition of T674I PDGFRα: 500 nM screening concentration, 10 μM ATP
[1] = system: Ba/F3 cells expressing T674I FIP1L1-PDGFRα; assay: cells; conditions: Mus musculus, BaF3, 24 h, read-out: IC50 cell growth/viability
MNK1 = MNK1 (Homo sapiens, UniProt Q9BUB5); assay: Wild-type kinase panel, MNK1; type: biochemical; conditions: single-dose screen
Sequence of MNK1 (Q9BUB5 whole entry): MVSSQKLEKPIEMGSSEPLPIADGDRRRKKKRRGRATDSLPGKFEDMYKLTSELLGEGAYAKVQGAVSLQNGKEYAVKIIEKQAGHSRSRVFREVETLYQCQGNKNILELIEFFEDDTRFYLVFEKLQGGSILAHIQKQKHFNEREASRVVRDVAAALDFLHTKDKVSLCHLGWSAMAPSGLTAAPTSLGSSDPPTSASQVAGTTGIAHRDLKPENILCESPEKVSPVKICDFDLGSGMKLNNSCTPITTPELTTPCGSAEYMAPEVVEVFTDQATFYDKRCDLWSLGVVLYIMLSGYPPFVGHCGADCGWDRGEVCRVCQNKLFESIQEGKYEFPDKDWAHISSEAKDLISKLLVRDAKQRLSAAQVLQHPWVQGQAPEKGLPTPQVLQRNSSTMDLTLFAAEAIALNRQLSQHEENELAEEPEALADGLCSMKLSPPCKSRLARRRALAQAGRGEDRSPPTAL

FGR = FGR (Homo sapiens, UniProt P09769); assay: Wild-type kinase panel, FGR; type: biochemical; conditions: single-dose screen
ERBB4 = ERBB4 (Homo sapiens, UniProt Q15303); assay: Wild-type kinase panel, ERBB4; type: biochemical; conditions: single-dose screen
Sequence of ERBB4 (Q15303 26-1308): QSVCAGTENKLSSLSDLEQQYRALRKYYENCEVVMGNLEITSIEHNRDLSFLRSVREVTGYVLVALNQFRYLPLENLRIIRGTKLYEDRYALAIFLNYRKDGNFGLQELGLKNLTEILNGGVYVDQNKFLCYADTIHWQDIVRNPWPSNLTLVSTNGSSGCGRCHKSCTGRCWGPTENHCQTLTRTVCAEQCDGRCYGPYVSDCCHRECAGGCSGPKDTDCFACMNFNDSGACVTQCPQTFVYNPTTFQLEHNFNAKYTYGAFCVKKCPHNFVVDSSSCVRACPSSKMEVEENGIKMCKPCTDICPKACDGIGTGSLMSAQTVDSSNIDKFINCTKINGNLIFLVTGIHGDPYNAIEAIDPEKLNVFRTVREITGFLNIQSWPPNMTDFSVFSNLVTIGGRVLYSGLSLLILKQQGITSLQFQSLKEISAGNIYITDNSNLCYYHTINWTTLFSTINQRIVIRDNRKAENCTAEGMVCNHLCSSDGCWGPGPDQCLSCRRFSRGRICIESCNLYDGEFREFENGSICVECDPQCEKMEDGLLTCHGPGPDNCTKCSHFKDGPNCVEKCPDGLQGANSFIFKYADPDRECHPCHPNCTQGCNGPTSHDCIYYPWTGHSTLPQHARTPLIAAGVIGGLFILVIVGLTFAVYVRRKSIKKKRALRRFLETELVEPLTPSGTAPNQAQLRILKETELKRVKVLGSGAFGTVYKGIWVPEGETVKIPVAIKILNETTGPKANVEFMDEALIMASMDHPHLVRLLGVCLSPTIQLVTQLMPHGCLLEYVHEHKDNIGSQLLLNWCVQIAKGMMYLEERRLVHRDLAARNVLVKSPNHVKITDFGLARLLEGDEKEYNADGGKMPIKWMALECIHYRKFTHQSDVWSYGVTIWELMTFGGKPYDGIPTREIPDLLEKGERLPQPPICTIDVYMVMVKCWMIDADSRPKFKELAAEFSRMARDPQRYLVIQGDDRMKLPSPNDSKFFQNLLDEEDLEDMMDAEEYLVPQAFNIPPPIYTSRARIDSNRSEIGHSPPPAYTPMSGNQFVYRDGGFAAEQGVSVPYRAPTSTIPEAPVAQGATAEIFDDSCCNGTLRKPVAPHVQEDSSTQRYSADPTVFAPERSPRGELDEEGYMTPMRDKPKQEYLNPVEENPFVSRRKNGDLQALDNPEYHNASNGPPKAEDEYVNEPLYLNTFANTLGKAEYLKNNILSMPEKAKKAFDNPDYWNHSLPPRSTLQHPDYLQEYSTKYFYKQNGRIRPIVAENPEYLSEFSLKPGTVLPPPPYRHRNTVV

ERBB2 = ERBB2 (Homo sapiens, UniProt P04626); assay: Wild-type kinase panel, ERBB2; type: biochemical; conditions: single-dose screen
HCK = HCK (Homo sapiens, UniProt P08631); assay: Wild-type kinase panel, HCK; type: biochemical; conditions: single-dose screen
EPHA6 = EPHA6 (Homo sapiens, UniProt Q9UF33); assay: Wild-type kinase panel, EPHA6; type: biochemical; conditions: single-dose screen
LCK = LCK (Homo sapiens, UniProt P06239); assay: Wild-type kinase panel, LCK; type: biochemical; conditions: single-dose screen
BTK = BTK (Homo sapiens, UniProt Q06187); assay: Wild-type kinase panel, BTK; type: biochemical; conditions: single-dose screen
Sequence of BTK (Q06187 whole entry): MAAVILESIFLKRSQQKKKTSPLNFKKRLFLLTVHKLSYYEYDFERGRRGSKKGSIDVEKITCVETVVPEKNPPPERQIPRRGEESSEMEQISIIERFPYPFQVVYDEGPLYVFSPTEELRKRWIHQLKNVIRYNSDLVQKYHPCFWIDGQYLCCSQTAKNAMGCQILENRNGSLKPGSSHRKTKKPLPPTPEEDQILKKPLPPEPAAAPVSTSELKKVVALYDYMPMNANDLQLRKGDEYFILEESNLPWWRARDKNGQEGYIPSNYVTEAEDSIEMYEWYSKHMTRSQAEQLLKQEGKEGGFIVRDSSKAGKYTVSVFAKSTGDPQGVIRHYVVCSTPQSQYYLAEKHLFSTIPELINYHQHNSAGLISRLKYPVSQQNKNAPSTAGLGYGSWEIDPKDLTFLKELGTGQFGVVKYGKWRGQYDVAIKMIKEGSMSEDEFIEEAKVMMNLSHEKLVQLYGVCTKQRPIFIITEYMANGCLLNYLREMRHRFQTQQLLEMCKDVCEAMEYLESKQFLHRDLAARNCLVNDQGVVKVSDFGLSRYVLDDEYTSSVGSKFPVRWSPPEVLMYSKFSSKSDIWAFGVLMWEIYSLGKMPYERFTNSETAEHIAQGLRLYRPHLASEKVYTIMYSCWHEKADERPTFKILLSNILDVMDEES

C-SRC = C-SRC (Homo sapiens, UniProt P12931); assay: Wild-type kinase panel, C-SRC; type: biochemical; conditions: single-dose screen
Sequence of C-SRC (P12931 whole entry): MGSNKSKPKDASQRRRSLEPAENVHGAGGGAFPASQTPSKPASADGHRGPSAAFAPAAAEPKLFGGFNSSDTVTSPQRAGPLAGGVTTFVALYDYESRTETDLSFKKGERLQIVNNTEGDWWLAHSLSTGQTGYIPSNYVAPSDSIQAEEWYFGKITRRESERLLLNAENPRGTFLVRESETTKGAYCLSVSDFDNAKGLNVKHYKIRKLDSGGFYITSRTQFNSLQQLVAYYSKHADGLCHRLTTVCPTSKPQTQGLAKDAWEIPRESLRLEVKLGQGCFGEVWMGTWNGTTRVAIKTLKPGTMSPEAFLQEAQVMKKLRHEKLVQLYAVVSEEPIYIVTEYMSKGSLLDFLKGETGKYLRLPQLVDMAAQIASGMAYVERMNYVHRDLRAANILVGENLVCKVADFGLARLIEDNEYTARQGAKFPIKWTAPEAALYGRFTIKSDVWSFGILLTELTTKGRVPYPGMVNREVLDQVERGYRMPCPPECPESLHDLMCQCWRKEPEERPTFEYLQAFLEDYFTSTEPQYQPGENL

EPHB4 = EPHB4 (Homo sapiens, UniProt P54760); assay: Wild-type kinase panel, EPHB4; type: biochemical; conditions: single-dose screen
BLK = BLK (Homo sapiens, UniProt P51451); assay: Wild-type kinase panel, BLK; type: biochemical; conditions: single-dose screen
Sequence of BLK (P51451 whole entry): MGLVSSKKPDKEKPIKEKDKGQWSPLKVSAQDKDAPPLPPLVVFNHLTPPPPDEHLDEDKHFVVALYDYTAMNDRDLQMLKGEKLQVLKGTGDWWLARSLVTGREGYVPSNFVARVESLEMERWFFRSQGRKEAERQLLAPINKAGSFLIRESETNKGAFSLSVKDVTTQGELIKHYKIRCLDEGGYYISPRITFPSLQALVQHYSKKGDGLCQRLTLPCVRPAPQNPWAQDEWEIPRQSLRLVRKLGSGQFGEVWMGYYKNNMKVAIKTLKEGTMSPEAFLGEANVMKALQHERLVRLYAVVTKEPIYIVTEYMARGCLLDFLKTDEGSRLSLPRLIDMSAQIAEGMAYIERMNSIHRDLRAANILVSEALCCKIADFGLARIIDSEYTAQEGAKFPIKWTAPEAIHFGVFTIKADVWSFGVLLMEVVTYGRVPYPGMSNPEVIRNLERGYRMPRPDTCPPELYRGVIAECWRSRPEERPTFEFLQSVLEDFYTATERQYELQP

[2] = system: T790M EGFR mutants (T790M, T790M/L858R, d746-750/T790M); conditions: dose-response
CLK3 = CLK3 (Homo sapiens, UniProt P49761); assay: Wild-type kinase panel, CLK3; type: biochemical; conditions: single-dose screen
TXK = TXK (Homo sapiens, UniProt P42681); assay: Wild-type kinase panel, TXK; type: biochemical; conditions: single-dose screen
JAK3 = JAK3 (Homo sapiens, UniProt P52333); assay: Wild-type kinase panel, JAK3; type: biochemical; conditions: single-dose screen
RIPK2 = RIPK2 (Homo sapiens, UniProt O43353); assay: Wild-type kinase panel, RIPK2; type: biochemical; conditions: single-dose screen
Sequence of RIPK2 (O43353 whole entry): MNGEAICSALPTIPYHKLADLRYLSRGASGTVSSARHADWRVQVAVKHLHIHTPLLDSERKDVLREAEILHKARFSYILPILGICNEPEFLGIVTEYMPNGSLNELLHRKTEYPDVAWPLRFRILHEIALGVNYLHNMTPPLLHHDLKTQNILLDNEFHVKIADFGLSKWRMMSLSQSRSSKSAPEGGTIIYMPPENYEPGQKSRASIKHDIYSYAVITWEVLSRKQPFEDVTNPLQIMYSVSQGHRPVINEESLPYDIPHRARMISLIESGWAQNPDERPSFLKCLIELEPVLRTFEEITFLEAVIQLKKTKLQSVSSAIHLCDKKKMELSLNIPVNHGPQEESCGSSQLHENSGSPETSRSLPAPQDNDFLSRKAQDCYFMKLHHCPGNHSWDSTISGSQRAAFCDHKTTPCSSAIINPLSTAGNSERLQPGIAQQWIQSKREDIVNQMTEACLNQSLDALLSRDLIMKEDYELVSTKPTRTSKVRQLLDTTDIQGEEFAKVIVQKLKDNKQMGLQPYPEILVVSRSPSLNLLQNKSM

LRRK2 mutants = assay: HotSpot kinase assay, LRRK2 mutants; type: biochemical; conditions: single-dose screen verified in dose-response
[3] = system: mutants of the RET tyrosine kinase; assay: HotSpot kinase assay, RET mutants; type: biochemical; conditions: single-dose screen verified in dose-response
[4] = system: Ba/F3 cells expressing WT FIP1L1-PDGFRα; assay: cells; conditions: Mus musculus, BaF3, 24 h, read-out: IC50 cell growth/viability

Sequence of T674I PDGFRα (P16234 24-1089 T674I): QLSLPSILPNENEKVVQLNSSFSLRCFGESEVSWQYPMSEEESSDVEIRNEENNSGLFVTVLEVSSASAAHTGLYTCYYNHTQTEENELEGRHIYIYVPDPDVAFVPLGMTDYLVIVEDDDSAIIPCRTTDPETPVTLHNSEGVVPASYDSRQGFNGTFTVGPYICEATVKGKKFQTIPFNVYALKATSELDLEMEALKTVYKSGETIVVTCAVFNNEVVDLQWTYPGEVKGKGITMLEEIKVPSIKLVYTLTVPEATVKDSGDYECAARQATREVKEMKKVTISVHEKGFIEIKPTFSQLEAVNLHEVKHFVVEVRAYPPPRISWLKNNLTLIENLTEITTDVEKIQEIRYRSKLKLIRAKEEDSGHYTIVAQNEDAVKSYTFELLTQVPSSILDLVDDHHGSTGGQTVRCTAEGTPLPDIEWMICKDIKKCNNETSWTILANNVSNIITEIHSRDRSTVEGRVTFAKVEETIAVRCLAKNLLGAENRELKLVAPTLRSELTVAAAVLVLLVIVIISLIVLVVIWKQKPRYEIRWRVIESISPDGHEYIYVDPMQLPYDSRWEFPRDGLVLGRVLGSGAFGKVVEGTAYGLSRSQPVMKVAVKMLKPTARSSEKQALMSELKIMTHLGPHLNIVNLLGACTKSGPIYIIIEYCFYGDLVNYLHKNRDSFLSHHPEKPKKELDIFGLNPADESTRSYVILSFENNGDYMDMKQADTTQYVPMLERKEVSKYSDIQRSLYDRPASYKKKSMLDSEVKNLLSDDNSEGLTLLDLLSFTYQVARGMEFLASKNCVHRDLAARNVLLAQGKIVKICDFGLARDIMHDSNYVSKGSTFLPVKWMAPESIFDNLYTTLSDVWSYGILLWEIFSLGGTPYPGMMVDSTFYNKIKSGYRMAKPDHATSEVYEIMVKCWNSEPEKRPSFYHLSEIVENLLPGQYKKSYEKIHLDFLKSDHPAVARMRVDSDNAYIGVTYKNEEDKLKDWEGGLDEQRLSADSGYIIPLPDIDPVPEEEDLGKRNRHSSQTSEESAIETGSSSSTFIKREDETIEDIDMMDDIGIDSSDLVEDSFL

Compound: bosutinib isomer
- inhibition of crizotinib-resistant L1196M ALK (in words) (L1196M ALK): inhibitor

Compound: CNC(=O)c1cc(Oc2ccc(NC(=O)Nc3ccc(Cl)c(C(F)(F)F)c3)cc2)ccn1 [sorafenib]
- inhibition of T674I PDGFRα (T674I PDGFRα): > 90%
- IC50 [1]: 0.144 µM

Compound: CN(C)C/C=C/C(=O)Nc1cc2c(Nc3ccc(F)c(Cl)c3)ncnc2cc1O[C@H]1CCOC1 [afatinib]
- inhibition of MNK1 (MNK1): more than 50%
- inhibition of FGR (FGR): more than 50%
- inhibition of ERBB4 (ERBB4): more than 50%
- inhibition of ERBB2 (ERBB2): more than 50%
- inhibition of HCK (HCK): more than 50%
- inhibition of EPHA6 (EPHA6): more than 50%
- inhibition of LCK (LCK): more than 50%
- inhibition of BTK (BTK): more than 50%
- inhibition of C-SRC (C-SRC): more than 50%
- inhibition of EPHB4 (EPHB4): more than 50%

Compound: CCN(CC)CCNC(=O)c1c(C)[nH]c(/C=C2\C(=O)Nc3ccc(F)cc32)c1C [sunitinib]
- inhibition of T674I PDGFRα (T674I PDGFRα): > 90%
- IC50 [1]: 0.0452 µM

Compound: EGFR/ErbB2/ErbB4 Inhibitor
- inhibition of BLK (BLK): more than 50%
- apparent IC50 against all T790M EGFR kinases (in words) [2]: low nanomolar
- inhibition of ERBB4 (ERBB4): more than 50%
- inhibition of CLK3 (CLK3): more than 50%
- inhibition of TXK (TXK): more than 50%
- inhibition of JAK3 (JAK3): more than 50%
- inhibition of RIPK2 (RIPK2): more than 50%
- inhibition of BTK (BTK): more than 50%

Compound: Flt-3 Inhibitor
- inhibition of LRRK2 mutants (in words) (LRRK2 mutants): inhibit

Compound: COc1cc2ncnc(Nc3cccc(Br)c3)c2cc1OC [compound 6]
- fold more potent than compound 7 against T674I PDGFRα (T674I PDGFRα; IC50 comparison): approximately 1.5 fold

Compound: Cc1cc(Nc2cc(N3CCN(C)CC3)nc(Sc3ccc(NC(=O)C4CC4)cc3)n2)[nH]n1 [tozasertib]
- inhibition of RET mutants (in words) [3]: can inhibit

Compound: Cc1ccc(Nc2nccc(N(C)c3ccc4c(C)n(C)nc4c3)n2)cc1S(N)(=O)=O [pazopanib]
- inhibition of T674I PDGFRα (T674I PDGFRα): > 90%
- IC50 [1]: 3.17 µM

Compound: C#Cc1cccc(Nc2ncnc3cc(OCCOC)c(OCCOC)cc23)c1 [erlotinib]
- IC50 [4]: 14.5 µM
- inhibition of T674I PDGFRα (T674I PDGFRα): > 90%
- IC50 [1]: 1.64 µM

Compound: COc1cc2ncnc(Nc3cccc(O)c3)c2cc1OC [compound 1]
- fold more potent than compound 2 against T674I PDGFRα (T674I PDGFRα; IC50 comparison, meta vs para substituent): 2 fold

Compound: COc1cc2ncnc(Nc3cccc(Cl)c3)c2cc1OC [compound 5]
- fold more potent than compound 7 against T674I PDGFRα (T674I PDGFRα; IC50 comparison): approximately 1.5 fold

Compound: Jak3 Inhibitor II
- inhibition of LRRK2 mutants (in words) (LRRK2 mutants): inhibit

Compound: COc1cc2ncnc(Nc3ccc(Oc4ccccc4)cc3)c2cc1OC [compound 3]
- potency relative to compound 4 against T674I PDGFRα (T674I PDGFRα; IC50 comparison): several-fold more potent

Compound: COc1cc2ncnc(Nc3ccc(O)cc3)c2cc1OC [compound 2]
- fold less potent than compound 3 against T674I PDGFRα (T674I PDGFRα; IC50 comparison): ~ 2 fold
